Results: publication PMC9586283 (Proceedings of the National Academy of Sciences of the …, 2022)

Tests used:
supercoiled DNA plasmid = format: biochemical
3′ AflIII CC substrate = experiment: Reconstituted Exo1- and Mlh1-Pms1-dependent MMR reaction in vitro; format: biochemical
[1] = tested on: end-blocked, mispair-containing DNA; format: binding; conditions: 20 nM Msh2-Msh6, 40 nM Mlh1-Pms1, 250 μM ATP, 25 °C, 20 μL/min, 236-bp DNA, Biacore T100
Pms1 = experiment: Interaction of mutant Mlh1 with Pms1 during protein purification; format: binding, S. cerevisiae
wild-type Mlh1-Pms1 = experiment: Mlh1-Pms1 endonuclease assay; format: biochemical, S. cerevisiae; conditions: 7.5 nM PCNA, 30 nM RFC-Δ1N, 35 nM Mlh1-Pms1, 1 mM MnSO4, 20 mM Tris (pH 7.5), 0.5 mM ATP, 100 ng supercoiled pRS425, 30 °C, 30 min, agarose gel

Substance	nicking activity relative to wild-type Mlh1-Pms1 (supercoiled DNA plasmid; % of the nicking activity of the wild-type Mlh1-Pms1 protein, RFC-Δ1N and PCNA, ATP, 35 nM Mlh1-Pms1, 30 °C, 30 min, in triplicate) [%]	endonuclease activity (in words) (supercoiled DNA plasmid; in vitro, with PCNA, RFC-Δ1N and ATP)	MMR in vitro (in words) (3′ AflIII CC substrate)	recruitment by Msh2-Msh6, increase in response units [1]	ability to interact with Pms1 (Pms1)	Mlh1-Pms1 endonuclease activity (wild-type Mlh1-Pms1; peptide-to-heterodimer molar ratio of 250:1) [%]	Mlh1-Pms1 endonuclease activity (wild-type Mlh1-Pms1; peptide-to-heterodimer molar ratio of 1,000:1) [%]
Mlh1(RADA)-Pms1	~10	defective for MMR and endonuclease activity in vitro	defective for MMR	robust increase in the response units	did not observe any defects in the ability of Mlh1(RADA) to interact with Pms1		
Mlh1-Pms1: wild-type S. cerevisiae Mlh1-Pms1 endonuclease heterodimer				robust increase in the response units			
KAKRQENKLVRIDASQAKITSFLSS [wild-type peptide]						~70	~50
